Measurements: patent US20170334899A1, “AMINO-SUBSTITUTED ISOTHIAZOLES” (Bayer Pharma Aktiengesellschaft, priority 2014, published 2017)

These molecules were tested against T1, CDK2/CycE (Homo sapiens, UniProt P24941) (assay: CDK2/CycE kinase assay (TR-FRET)). Conditions: avg, read-out: CDK2 avg (IC50 [mol/l]).
T1 construct: GST; purchased ProQinase GmbH (Freiburg, Germany); host or cells: insect cells (Sf9)
Assay type: biochemical
Outline: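 GST-tagged human CDK2 and CycE from Sf9 cells, preincubated 15 min with compound, then 25 min at 22° C. with 10 μM ATP and 0.75 μM biotinylated Rb-derived peptide (final). Phospho-substrate read by TR-FRET (anti-pRB pSer807/pSer811, Eu anti-mouse IgG, streptavidin-XL665), 665/620 nm ratio, normalised to no-inhibitor and no-enzyme controls.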

SMILES | IC50
Cc1nsc(Nc2cncc(C(F)(F)F)n2)c1C(=O)Nc1ccc(C(=O)N2CCN(CC(F)(F)F)CC2)cc1 [Example 272, 3-methyl-N-(4-{[4-(2,2,2-trifluoroethyl)piperazin-1-yl]carbonyl}phenyl)-5-{[6-(trifluoromethyl)pyrazin-2-yl]amino}-1,2-thiazole-4-carboxamide] | > 20 µM
Cc1nsc(Nc2cncc(C(F)(F)F)n2)c1C(=O)Nc1ccc(C(=O)N2CCN(CC(F)F)CC2)cc1 [Example 273, N-(4-{[4-(2,2-difluoroethyl)piperazin-1-yl]carbonyl}phenyl)-3-methyl-5-{[6-(trifluoromethyl)pyrazin-2-yl]amino}-1,2-thiazole-4-carboxamide] | > 20 µM
Cc1nsc(Nc2cncc(C(F)(F)F)n2)c1C(=O)Nc1ccc(C(=O)N2CCN(CCF)CC2)cc1 [Example 274, N-(4-{[4-(2-fluoroethyl)piperazin-1-yl]carbonyl}phenyl)-3-methyl-5-{[6-(trifluoromethyl)pyrazin-2-yl]amino}-1,2-thiazole-4-carboxamide] | 5.4 µM
CCN1CCN(C(=O)c2ccc(NC(=O)c3c(C)nsc3Nc3cncc(C(F)(F)F)n3)cc2)CC1 [Example 275, N-{4-[(4-ethylpiperazin-1-yl)carbonyl]phenyl}-3-methyl-5-{[6-(trifluoromethyl)pyrazin-2-yl]amino}-1,2-thiazole-4-carboxamide] | 8.4 µM
Cc1nsc(Nc2cncc(C(F)(F)F)n2)c1C(=O)Nc1ccc(OCCO)nc1 [Example 276, N-[6-(2-hydroxyethoxy)pyridin-3-yl]-3-methyl-5-{[6-(trifluoromethyl)pyrazin-2-yl]amino}-1,2-thiazole-4-carboxamide] | > 20 µM
Cc1nsc(Nc2cnc(C(F)(F)F)cn2)c1C(=O)Nc1ccc(OCCO)nc1 [Example 277, N-[6-(2-hydroxyethoxy)pyridin-3-yl]-3-methyl-5-{[5-(trifluoromethyl)pyrazin-2-yl]amino}-1,2-thiazole-4-carboxamide] | > 20 µM
Cc1nsc(Nc2cncc(C(F)(F)F)n2)c1C(=O)Nc1ccc(OCCCO)nc1 [Example 278, N-[6-(3-hydroxypropoxy)pyridin-3-yl]-3-methyl-5-{[6-(trifluoromethyl)pyrazin-2-yl]amino}-1,2-thiazole-4-carboxamide] | > 20 µM
Cc1nsc(Nc2cnc(C(F)(F)F)cn2)c1C(=O)Nc1ccc(OCCCO)nc1 [Example 279, N-[6-(3-hydroxypropoxy)pyridin-3-yl]-3-methyl-5-{[5-(trifluoromethyl)pyrazin-2-yl]amino}-1,2-thiazole-4-carboxamide] | > 20 µM
Cc1nsc(Nc2cncc(C(F)(F)F)n2)c1C(=O)Nc1ccc(C(=O)NC2CN(CC(F)(F)F)C2)cc1 [Example 280, 3-methyl-N-(4-{[1-(2,2,2-trifluoroethyl)azetidin-3-yl]carbamoyl}phenyl)-5-{[6-(trifluoromethyl)pyrazin-2-yl]amino}-1,2-thiazole-4-carboxamide] | 11 µM
Cc1nsc(Nc2cnc3ccccc3n2)c1C(=O)Nc1cccc(NS(=O)(=O)C2CCN(CC(F)(F)F)CC2)c1 [Example 281, 3-methyl-5-(quinoxalin-2-ylamino)-N-[3-({[1-(2,2,2-trifluoroethyl)piperidin-4-yl]sulfonyl}amino)phenyl]-1,2-thiazole-4-carboxamide] | > 20 µM
Cc1nsc(Nc2cnc3ccccc3n2)c1C(=O)Nc1cccc(NS(=O)(=O)C2CCN(CC(F)F)CC2)c1 [Example 282, N-[3-({[1-(2,2-difluoroethyl)piperidin-4-yl]sulfonyl}amino)phenyl]-3-methyl-5-(quinoxalin-2-ylamino)-1,2-thiazole-4-carboxamide] | > 20 µM
Cc1nsc(Nc2cnc(C(F)(F)F)cn2)c1C(=O)Nc1cccc(NC(=O)OC(C)(C)C)c1 [Example 284, 3-tert-butyl (3-{[(3-methyl-5-{[5-(trifluoromethyl)pyrazin-2-yl]amino}-1,2-thiazol-4-yl)carbonyl]amino}phenyl)carbamate] | > 20 µM
Cc1nsc(Nc2cnc3ccccc3n2)c1C(=O)Nc1cccc(NS(=O)(=O)C2CN(CC(F)(F)F)C2)c1 [Example 285, 3-methyl-5-(quinoxalin-2-ylamino)-N-[3-({[1-(2,2,2-trifluoroethyl)azetidin-3-yl]sulfonyl}amino)phenyl]-1,2-thiazole-4-carboxamide] | > 20 µM
Cc1nsc(Nc2cnc3ccccc3n2)c1C(=O)Nc1cccc(NS(=O)(=O)C2CN(CCF)C2)c1 [Example 287, N-[3-({[1-(2-fluoroethyl)azetidin-3-yl]sulfonyl}amino)phenyl]-3-methyl-5-(quinoxalin-2-ylamino)-1,2-thiazole-4-carboxamide] | > 20 µM
Cc1nsc(Nc2cnc3ccccc3n2)c1C(=O)Nc1cccc(NS(=O)(=O)C2CN(CCC(F)(F)F)C2)c1 [Example 288, 3-methyl-5-(quinoxalin-2-ylamino)-N-[3-({[1-(3,3,3-trifluoropropyl)azetidin-3-yl]sulfonyl}amino)phenyl]-1,2-thiazole-4-carboxamide] | > 20 µM
Cc1nsc(Nc2cnc3ccccc3n2)c1C(=O)Nc1cccc(NS(=O)(=O)C2CCN(C(=O)OC(C)(C)C)C2)c1 (stereo not shown) [Example 290, tert-butyl 3-{[3-({[3-methyl-5-(quinoxalin-2-ylamino)-1,2-thiazol-4-yl]carbonyl}amino)phenyl]sulfamoyl} pyrrolidine-1-carboxylate] | 19 µM
Cc1nsc(Nc2cnc3ccccc3n2)c1C(=O)Nc1cccc(NS(=O)(=O)C2CCCN(C(=O)OCc3ccccc3)C2)c1 (stereo not shown) [Example 291, benzyl 3-{[3-({[3-methyl-5-(quinoxalin-2-ylamino)-1,2-thiazol-4-yl]carbonyl}amino)phenyl]sulfamoyl} piperidine-1-carboxylate] | 14 µM
Cc1nsc(Nc2cnc(C(F)(F)F)cn2)c1C(=O)Nc1ccc(OCCCNCC(F)(F)F)nc1 [Example 292, 3-methyl-N-(6-{3-[(2,2,2-trifluoroethyl)amino]propoxy}pyridin-3-yl)-5-{[5-(trifluoromethyl)pyrazin-2-yl]amino}-1,2-thiazole-4-carboxamide] | > 20 µM
Cc1nsc(Nc2cnc(C(F)(F)F)cn2)c1C(=O)Nc1ccc(OCCCNCC(F)F)nc1 [Example 293, N-(6-{3-[(2,2-difluoroethyl)amino]propoxy}pyridin-3-yl)-3-methyl-5-{[5-(trifluoromethyl)pyrazin-2-yl]amino}-1,2-thiazole-4-carboxamide] | > 20 µM
Cc1nsc(Nc2cnc(C(F)(F)F)cn2)c1C(=O)Nc1ccc(OCCCNCCC(F)(F)F)nc1 [Example 294, 3-methyl-5-{[5-(trifluoromethyl)pyrazin-2-yl]amino}-N-(6-{3-[(3,3,3-trifluoropropyl)amino]propoxy}pyridin-3-yl)-1,2-thiazole-4-carboxamide] | > 20 µM
Cc1nsc(Nc2cnc(C(F)(F)F)cn2)c1C(=O)Nc1ccc(OC2CCN(CCF)C2)nc1 (stereo not shown) [Example 295, N-(6-{[1-(2-fluoroethyl)pyrrolidin-3-yl]oxy}pyridin-3-yl)-3-methyl-5-{[5-(trifluoromethyl)pyrazin-2-yl]amino}-1,2-thiazole-4-carboxamide] | > 20 µM
Cc1nsc(Nc2cnc(C(F)(F)F)cn2)c1C(=O)Nc1ccc(OC2CCN(CC(F)F)C2)nc1 (stereo not shown) [Example 296, N-(6-{[1-(2,2-difluoroethyl)pyrrolidin-3-yl]oxy}pyridin-3-yl)-3-methyl-5-{[5-(trifluoromethyl)pyrazin-2-yl]amino}-1,2-thiazole-4-carboxamide] | > 20 µM
Cc1nsc(Nc2cnc(C(F)(F)F)cn2)c1C(=O)Nc1ccc(OC2CCN(CC(F)(F)F)C2)nc1 (stereo not shown) [Example 297, 3-methyl-N-(6-{[1-(2,2,2-trifluoroethyl)pyrrolidin-3-yl]oxy}pyridin-3-yl)-5-{[5-(trifluoromethyl)pyrazin-2-yl]amino}-1,2-thiazole-4-carboxamide] | > 20 µM
Cc1nsc(Nc2cnc(C(F)(F)F)cn2)c1C(=O)Nc1ccc(OC2CCN(CCC(F)(F)F)C2)nc1 (stereo not shown) [Example 298, 3-methyl-5-{[5-(trifluoromethyl)pyrazin-2-yl]amino}-N-(6-{[1-(3,3,3-trifluoropropyl)pyrrolidin-3-yl]oxy}pyridin-3-yl)-1,2-thiazole-4-carboxamide] | > 20 µM
Cc1nsc(Nc2cnc(C(F)(F)F)cn2)c1C(=O)Nc1ccc(N(C)C)c(OCCCN(C)CC(F)(F)F)c1 [Example 299, N-[4-(dimethylamino)-3-{3-[methyl(2,2,2-trifluoroethyl)amino]propoxy}phenyl]-3-methyl-5-{[5-(trifluoromethyl)pyrazin-2-yl]amino}-1,2-thiazole-4-carboxamide] | > 20 µM
Cc1nsc(Nc2cnc(C(F)(F)F)cn2)c1C(=O)Nc1ccc(N(C)C)c(OCCCN(C)CCC(F)(F)F)c1 [Example 300, N-[4-(dimethylamino)-3-{3-[methyl(3,3,3-trifluoropropyl)amino]propoxy}phenyl]-3-methyl-5-{[5-(trifluoromethyl)pyrazin-2-yl]amino}-1,2-thiazole-4-carboxamide] | > 20 µM
Cc1nsc(Nc2cnc(C(F)(F)F)cn2)c1C(=O)Nc1ccc(F)c(OCCCN(C)CC(F)F)c1 [Example 301, N-(3-{3-[(2,2-difluoroethyl)(methyl)amino]propoxy}-4-fluorophenyl)-3-methyl-5-{[5-(trifluoromethyl)pyrazin-2-yl]amino}-1,2-thiazole-4-carboxamide] | > 20 µM
Cc1nsc(Nc2cnc(C(F)(F)F)cn2)c1C(=O)Nc1ccc(F)c(OCCCN(C)CC(F)(F)F)c1 [Example 302, N-(4-fluoro-3-{3-[methyl(2,2,2-trifluoroethyl)amino]propoxy}phenyl)-3-methyl-5-{[5-(trifluoromethyl)pyrazin-2-yl]amino}-1,2-thiazole-4-carboxamide] | > 20 µM
